Experimental data: PubChem BioAssay (NCI)
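Exposure lasted 48 hours, with cells grown in 96-well plates and compounds tested at five concentrations. Here, GI50 denotes the concentration required for 50% inhibition of growth. TGI: concentration producing complete growth inhibition.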

Experiments:
Assay in all cases: DTP human tumour cell line panel, 48 h; in the data active = GI50 below about 0.43 µM; inactive = the rest
786-0 renal = tested on: 786-0 renal
CAKI-1 renal = tested on: CAKI-1 renal
CCRF-CEM leukemia = tested on: CCRF-CEM leukemia
HCT-116 colon = tested on: HCT-116 colon
K-562 leukemia = tested on: K-562 leukemia
NCI/ADR-RES ovarian = tested on: NCI/ADR-RES ovarian
SK-MEL-5 melanoma = tested on: SK-MEL-5 melanoma
SR leukemia = tested on: SR leukemia
HCC-2998 colon = tested on: HCC-2998 colon
HOP-92 NSCLC = tested on: HOP-92 NSCLC

O=CN1CCN(CC(O)CN2CCCCC2)CC1 (stereo not given)
> 100 µM: TGI (786-0 renal) | TGI (CAKI-1 renal) | TGI (CCRF-CEM leukemia) | TGI (HCT-116 colon) | TGI (K-562 leukemia) | TGI (NCI/ADR-RES ovarian) | TGI (SK-MEL-5 melanoma) | TGI (SR leukemia)

CCOP(=O)(OCC)OC1C=CC2CCC1C2 (stereo not given)
> 100 µM: TGI (786-0 renal) | TGI (CAKI-1 renal) | TGI (CCRF-CEM leukemia) | TGI (HCC-2998 colon) | TGI (HCT-116 colon) | TGI (K-562 leukemia) | TGI (SK-MEL-5 melanoma)
58.7 µM: TGI (SR leukemia)

COc1cc2c3c(n(CCCOC(=O)C(F)(F)F)c(=O)c2cc1OC)-c1cc2c(cc1C3=O)OCO2
33.4 µM: TGI (HOP-92 NSCLC)
active: GI50 (786-0 renal) < 0.01 µM | GI50 (CAKI-1 renal) < 0.01 µM | GI50 (CCRF-CEM leukemia) < 0.01 µM | GI50 (HCC-2998 colon) 0.131 µM | GI50 (HCT-116 colon) < 0.0158 µM | GI50 (HOP-92 NSCLC) 0.122 µM | GI50 (K-562 leukemia) < 0.0289 µM | GI50 (NCI/ADR-RES ovarian) < 0.0289 µM | GI50 (SK-MEL-5 melanoma) 0.402 µM
1.24 µM: TGI (SK-MEL-5 melanoma)
0.539 µM: TGI (HCC-2998 colon)
0.137 µM: TGI (NCI/ADR-RES ovarian)
< 0.0241 µM: TGI (786-0 renal)
> 100 µM: TGI (CCRF-CEM leukemia) | TGI (K-562 leukemia)

O=S(=O)(c1ccccc1)C1CN2OC1(S(=O)(=O)c1ccccc1)CC2c1ccc(Br)cc1 (stereo not given)
> 100 µM: TGI (786-0 renal) | TGI (CAKI-1 renal) | TGI (CCRF-CEM leukemia) | TGI (HCC-2998 colon) | TGI (HCT-116 colon) | TGI (HOP-92 NSCLC) | TGI (K-562 leukemia) | TGI (SK-MEL-5 melanoma)

CCCO/S(=N\S(=O)(=O)c1ccccc1)c1ccccc1[N+](=O)[O-] (stereo not given)
> 100 µM: TGI (786-0 renal) | TGI (CAKI-1 renal) | TGI (CCRF-CEM leukemia) | TGI (HCC-2998 colon) | TGI (HCT-116 colon) | TGI (K-562 leukemia) | TGI (SK-MEL-5 melanoma) | TGI (SR leukemia)

CCOc1ccncc1[N+](=O)[O-]
> 100 µM: TGI (786-0 renal) | TGI (CAKI-1 renal) | TGI (CCRF-CEM leukemia) | TGI (HCT-116 colon) | TGI (K-562 leukemia) | TGI (NCI/ADR-RES ovarian) | TGI (SK-MEL-5 melanoma) | TGI (SR leukemia)

Cc1ccc(S(=O)(=O)c2ccc(N)cc2)cc1
> 100 µM: TGI (786-0 renal) | TGI (CAKI-1 renal) | TGI (CCRF-CEM leukemia) | TGI (HCC-2998 colon) | TGI (HCT-116 colon) | TGI (K-562 leukemia) | TGI (SK-MEL-5 melanoma)

COc1ccc(-n2c(C)cc(-c3ccccc3)c2C)cc1
9.16 µM: TGI (CCRF-CEM leukemia)
5.75 µM: TGI (SR leukemia)
inactive: GI50 (786-0 renal) 1.94 µM | GI50 (CAKI-1 renal) 1.57 µM | GI50 (CCRF-CEM leukemia) 2.16 µM | GI50 (HCC-2998 colon) 3.04 µM | GI50 (HCT-116 colon) 2.11 µM | GI50 (K-562 leukemia) 1.4 µM | GI50 (NCI/ADR-RES ovarian) 3.33 µM | GI50 (SK-MEL-5 melanoma) 1.77 µM | GI50 (SR leukemia) 1.3 µM
7.55 µM: TGI (CAKI-1 renal)
4.85 µM: TGI (786-0 renal)
21.5 µM: TGI (NCI/ADR-RES ovarian)
> 100 µM: TGI (K-562 leukemia)
16.1 µM: TGI (HCT-116 colon)
11.4 µM: TGI (HCC-2998 colon)
4.86 µM: TGI (SK-MEL-5 melanoma)

O=Cc1ccc2c(c1-c1c(C=O)ccc3c1OCO3)OCO2
> 100 µM: TGI (786-0 renal) | TGI (CAKI-1 renal) | TGI (CCRF-CEM leukemia) | TGI (HCC-2998 colon) | TGI (HCT-116 colon) | TGI (K-562 leukemia) | TGI (SK-MEL-5 melanoma) | TGI (SR leukemia)

O=P1(c2ccccc2)CCCCC1
> 100 µM: TGI (786-0 renal) | TGI (CCRF-CEM leukemia) | TGI (HCC-2998 colon) | TGI (HCT-116 colon) | TGI (K-562 leukemia) | TGI (SK-MEL-5 melanoma) | TGI (SR leukemia)

CSc1ccc2c(c1)C(=O)c1c-2n(CCCBr)c(=O)c2cc([N+](=O)[O-])ccc12
> 100 µM: TGI (CCRF-CEM leukemia) | TGI (HCC-2998 colon) | TGI (HCT-116 colon) | TGI (NCI/ADR-RES ovarian)
active: GI50 (HOP-92 NSCLC) 0.356 µM
8.94 µM: TGI (CAKI-1 renal)
19.3 µM: TGI (K-562 leukemia)
inactive: GI50 (786-0 renal) 2.45 µM | GI50 (CAKI-1 renal) 1.09 µM | GI50 (CCRF-CEM leukemia) 0.451 µM | GI50 (HCC-2998 colon) 74.4 µM | GI50 (HCT-116 colon) 2.22 µM | GI50 (K-562 leukemia) 3.94 µM | GI50 (NCI/ADR-RES ovarian) 5.5 µM | GI50 (SK-MEL-5 melanoma) 3 µM
10.3 µM: TGI (HOP-92 NSCLC)
25.8 µM: TGI (SK-MEL-5 melanoma)
10.5 µM: TGI (786-0 renal)

O=C(Nc1ccc(F)cc1)c1cc(S(=O)(=O)Nc2nc3ccccc3o2)c(SCc2ccccc2)cc1Cl
37.7 µM: TGI (CAKI-1 renal)
99.6 µM: TGI (K-562 leukemia)
31.9 µM: TGI (SK-MEL-5 melanoma)
35.3 µM: TGI (786-0 renal)
54.4 µM: TGI (NCI/ADR-RES ovarian)
31.2 µM: TGI (CCRF-CEM leukemia)
inactive: GI50 (786-0 renal) 18.5 µM | GI50 (CAKI-1 renal) 18.4 µM | GI50 (CCRF-CEM leukemia) 12.9 µM | GI50 (HCC-2998 colon) 18.4 µM | GI50 (HCT-116 colon) 17.9 µM | GI50 (HOP-92 NSCLC) 18.5 µM | GI50 (K-562 leukemia) 24.7 µM | GI50 (NCI/ADR-RES ovarian) 22.8 µM | GI50 (SK-MEL-5 melanoma) 17.9 µM
31.7 µM: TGI (HCT-116 colon)
42.4 µM: TGI (HOP-92 NSCLC)
32.6 µM: TGI (HCC-2998 colon)

CNS(=O)(=O)NNS(=O)(=O)c1ccc(Br)cc1
> 100 µM: TGI (786-0 renal) | TGI (CAKI-1 renal) | TGI (CCRF-CEM leukemia) | TGI (HCC-2998 colon) | TGI (HCT-116 colon) | TGI (HOP-92 NSCLC) | TGI (K-562 leukemia) | TGI (SK-MEL-5 melanoma)

Cc1cc(NS(=O)(=O)c2ccc(Nc3c4ccccc4nc4c(C(=O)N5CCN(CCO)CC5)ccc(Cl)c34)cc2)no1
74 µM: TGI (CCRF-CEM leukemia)
> 100 µM: TGI (786-0 renal) | TGI (CAKI-1 renal) | TGI (HCC-2998 colon) | TGI (HCT-116 colon) | TGI (HOP-92 NSCLC) | TGI (K-562 leukemia) | TGI (SK-MEL-5 melanoma)

Cc1ccc(C)c(N=C2NC(=O)C(CC(=O)Nc3ccc(Cl)cc3Cl)S2)c1 (stereo not given)
> 100 µM: TGI (786-0 renal) | TGI (CAKI-1 renal) | TGI (CCRF-CEM leukemia) | TGI (HCC-2998 colon) | TGI (K-562 leukemia) | TGI (SK-MEL-5 melanoma)

COc1cc2c(c(OC)c1OC)-c1ncc3cc4c(cc3c1C2)OCO4
36.5 µM: TGI (SK-MEL-5 melanoma)
48.1 µM: TGI (HCC-2998 colon)
71.7 µM: TGI (CAKI-1 renal)
> 100 µM: TGI (786-0 renal) | TGI (K-562 leukemia) | TGI (NCI/ADR-RES ovarian)
48.3 µM: TGI (HCT-116 colon)
inactive: GI50 (786-0 renal) 30.2 µM | GI50 (CAKI-1 renal) 18 µM | GI50 (HCC-2998 colon) 17.4 µM | GI50 (HCT-116 colon) 18.8 µM | GI50 (K-562 leukemia) 2.27 µM | GI50 (NCI/ADR-RES ovarian) 32.1 µM | GI50 (SK-MEL-5 melanoma) 17.4 µM

CC(=O)O[C@H]1CCC2[C@@H]3CCC4Nc5[nH]ncc5C[C@]4(C)C3CC[C@@]21C (stereo not given in full)
74.9 µM: TGI (SK-MEL-5 melanoma)
79.7 µM: TGI (HCC-2998 colon)
> 100 µM: TGI (786-0 renal) | TGI (CAKI-1 renal) | TGI (HCT-116 colon) | TGI (K-562 leukemia)
66.5 µM: TGI (CCRF-CEM leukemia)

CCn1c(=O)c2c(=O)c3c4c(oc3oc2c2ccccc21)C(=O)c1ccccc1C4=O
inactive: GI50 (786-0 renal) > 22.7 µM | GI50 (CCRF-CEM leukemia) 1.18 µM | GI50 (HCC-2998 colon) > 100 µM | GI50 (K-562 leukemia) 1.73 µM | GI50 (NCI/ADR-RES ovarian) 13.8 µM | GI50 (SK-MEL-5 melanoma) > 100 µM
> 100 µM: TGI (786-0 renal) | TGI (CCRF-CEM leukemia) | TGI (HCC-2998 colon) | TGI (HCT-116 colon) | TGI (K-562 leukemia) | TGI (NCI/ADR-RES ovarian) | TGI (SK-MEL-5 melanoma)

CC(C)C(=O)NS(=O)(=O)c1ccccc1
> 100 µM: TGI (786-0 renal) | TGI (CAKI-1 renal) | TGI (CCRF-CEM leukemia) | TGI (HCC-2998 colon) | TGI (HCT-116 colon) | TGI (HOP-92 NSCLC) | TGI (K-562 leukemia) | TGI (SR leukemia)

O=C1NC(=O)C(c2cccc([N+](=O)[O-])c2)=C1Nc1cc(Cl)c(O)c(Cl)c1
> 25 µM: TGI (786-0 renal) | TGI (CAKI-1 renal) | TGI (HCC-2998 colon) | TGI (HCT-116 colon) | TGI (K-562 leukemia) | TGI (NCI/ADR-RES ovarian) | TGI (SK-MEL-5 melanoma)
inactive: GI50 (786-0 renal) > 23.3 µM | GI50 (CAKI-1 renal) > 20.9 µM | GI50 (HCC-2998 colon) > 25 µM | GI50 (HCT-116 colon) > 25 µM | GI50 (K-562 leukemia) > 25 µM | GI50 (NCI/ADR-RES ovarian) > 25 µM | GI50 (SK-MEL-5 melanoma) 24.4 µM
